According to patent US20240294881A1, “CELL CULTURE SUPPLEMENT FOR PRODUCING STEM CELLS, AND METHOD FOR PRODUCING STEM CELLS” (OPTICELL, INC, priority 2021, published 2024):

Tests used:
[1] = system: healthy human neonatal fibroblasts; assay: Real-time PCR of undifferentiated stem cell marker genes in neonatal fibroblast spheroids (6-well flat-bottom); type: cell-based; details: day 20 of 3D spheroid culture, coated 6-well flat-bottom; control without supplement = 1.0; ΔΔCt, β-actin
Protocol: 2 mL of an aqueous solution of the polypeptide represented by formula (1) (0.125%) (cell culture supplement) was added to a commercial polystyrene-made 6-well flat-bottom culture vessel (CellBIND, Corning) and allowed to stand at 4° C. for 24 hours.
Thereafter, the excess cell culture supplement was removed, and the remaining solution was dried in a dryer at 37° C. for 96 hours to complete coating treatment with the cell culture supplement. Healthy human neonatal fibroblasts (ATCC PCS-201-010, primary dermal fibroblasts, neonatal, referred to as “fibroblasts” below) were maintained and cultured in a serum-free medium (Promo Cell; fibroblast basal medium, basic-FGF 5 ng/mb and insulin 2.5 μg/mL). The fibroblasts floating in 2 mL of the medium were seeded in the culture vessel coated with the cell culture supplement at 2×10^6 cells/well and cultured at 37° C. under 5% CO2 conditions. For a control, fibroblasts were seeded in a culture vessel of the same type with no coating applied with the cell culture supplement (2×10^6 cells/well). Observation was performed with a microscope on day 2 and day 20 after the start of culture to capture images of spheroid formation (FIG. 5). […]
Specifically, a NucleoZOL reagent (Macherey-Nagel) was added to each type of cells, and total-RNA was extracted according to the protocol recommended by the reagent manufacturer and used as template RNA for detecting undifferentiated stem cell markers. For real-time PCR analysis, PCR probes from QuantiFast Probe RT-PCR Kits (QTAGEN; No. 204454) and TagMan Gene Expression Assay Probe (Thermo Fisher Scientific) were used. […] In the gene expression analysis, relative quantification was performed according to the ΔΔCt method (Delta Delta Ct method). The results of analysis according to the ΔΔCt method show the amount of a gene expressed by control cells under the conditions of “no cell culture supplement, flat-bottom 2D growth, day 0” as “1.0” in relative terms, and the increase rate of the expression level on day 20 of spheroid proliferation was determined by comparison (FIG. 6).

[2] = system: healthy human adult mammary gland epithelial cells; assay: Spheroid culture of healthy human adult mammary gland epithelial cells, microscope observation; type: cell-based; details: culture vessel coated with 0.125% solution; day 2 to day 20; uncoated control grew 2D
Protocol: An aqueous solution of the polypeptide represented by formula (1) (0.125%) (cell culture supplement) was added to a commercial polystyrene-made 6-well flat-bottom culture vessel (CellBIND, Corning) and to a polystyrene-made 96-well round-bottom culture vessel (Nunclon Delta 96U Bottom, Thermo Fisher Scientific) and allowed to stand at 4° C. for 24 hours.
The cell culture supplement solution was then removed and the coated cell culture supplement was dried in a dryer at 37° C. for 96 hours to complete the cell culture supplement coating process. Healthy human adult mammary gland epithelial cells (ATCC PCS-600-010, primary mammary epithelial cells, referred to as “mammary gland epithelial cells” below) were maintained and cultured in a serum-free medium (Promo Cell; mammary epithelial cell growth medium, EGF 5 ng/ml, and insulin 2.5 μg/mL). In the culture vessels coated with the cell culture supplement, the mammary gland epithelial cells floating in 2 mL of the medium were seeded at 2×10^6 cells/well (6-well flat-bottom culture vessel) and the mammary gland epithelial cells floating in 100 μL of the medium were seeded at 2×10^4 cells/well (96-well round-bottom culture vessel). The cells of each culture vessel were cultured at 37° C. under 5% CO2 conditions. […]

[3] = system: HOS-143B cells; assay: Inhibition of induction of apoptosis, Caspase-3/7 activity assay in spheroids; type: cell-based, human; details: U- and V-bottom 96-well plates coated with 0.5% solution diluted 4-fold and 8-fold; day 3 and day 6; concentration-dependent, more pronounced on day 6
Protocol: An aqueous solution of the polypeptide represented by formula (1) was added in two different concentrations (prepared by diluting a 0.5% solution 4-fold and 8-fold) at 100 μL/well and 200 μL/well respectively to two 96-well cell culture plates with different bottom shapes (plate #163320 with a U-shaped bottom; Corning, NY, USA, and plate #277143 with a V-shaped bottom; Thermo Fisher Scientific, MA, USA) and allowed to stand overnight at 4° C. Thereafter, the excess cell culture supplement was removed, and the remaining solution was dried in a clean bench for about 6 hours to complete the treatment with the cell culture supplement. […] After three days and six days, the apoptosis activity per well was measured by using a Caspase activity assay kit (Apo-ONE Homogeneous Caspase-3/7 Assay kit; Promega, WI, USA). […] Thereafter, 100 μL of the culture fluid was transferred to a black 96-well cell culture plate (#237105; Thermo Fisher Scientific, MA, USA), and the value of fluorescence at 590 nm (excitation light at 560 nm) was measured with a plate reader. The value determined by subtracting the value for reagent-only with no cells (blank value) from a measured value was considered to be the measured value for each day of culture, and the values compared to those of the plate not coated with the aqueous solution of the polypeptide represented by formula (1) (control) were plotted.

## (Pro-Hyp-Gly)n [cell culture supplement]
[1]
  NANOG gene expression level (increase vs control): 9.1 fold
  OCT4 gene expression level (increase vs control): 5.1 fold
  SOX2 gene expression level (increase vs control): 34.4 fold
[2]
  spheroid formation: self-assembled to form spheroids
[3]
  apoptosis (Caspase-3/7 activity) compared with uncoated plate: inhibited
